According to PMC12430443, “Discovery of Novel Benzamide-Based Sigma-1 Receptor Agonists with Enhanced Selectivity and Safety” (Molecules, 2025):

How the values were obtained:
[1] = target: T1, S1R (Homo sapiens, UniProt Q99720); assay: S1R competitive radioligand binding, [3H](+)-pentazocine, Jurkat cell membranes; settings: for Ki: [3H](+)-pentazocine, mean of 2–3 independent experiments; for Ki / IC50: Jurkat cell membranes; for IC50: [3H]-(+)-pentazocine displacement, n = 2; for Ki (S2R)/ Ki (S1R): selectivity ratio S2R/S1R
T1 construct: For the S1R assay, Jurkat cell membranes (10–20 μg protein/tube) were incubated at 37 °C for 2 h; host or cells: Jurkat cell membranes
T1 sequence (Q99720 whole entry): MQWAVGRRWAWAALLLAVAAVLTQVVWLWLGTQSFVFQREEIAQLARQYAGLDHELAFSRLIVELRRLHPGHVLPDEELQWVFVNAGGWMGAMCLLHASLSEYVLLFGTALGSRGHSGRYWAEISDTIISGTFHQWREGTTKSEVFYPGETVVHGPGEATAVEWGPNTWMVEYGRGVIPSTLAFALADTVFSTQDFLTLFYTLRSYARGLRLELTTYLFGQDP
From the text: (§1) S1R and S2R affinities were classically evaluated through competitive binding assays using radioligands, following the protocol described by Ganapathy et al.. The selective radioligand [^3H] (+)-pentazocine was employed as the classic prototypical ligand, selectively binding to the orthosteric S1R-binding sites. […] Jurkat cell membranes served as the receptor source in both assays. The equilibrium dissociation constants (Ki) for S1R and S2R were derived from the IC50 values of each compound, and selectivity ratios (S2R/S1R) were subsequently calculated (Table 1, Figures S2 and S3).
(§2) Binding assays were performed by Eurofins Cerep (Poitiers, France) according to the protocol of Ganapathy. […] For the S2R assay, Jurkat cell membranes (10–20 μg protein/tube) were incubated at room temperature for 1 h in the same buffer with [^3H]-DTG (25 nM) in the presence of (+)-pentazocine (1 μM) to saturate S1R, along with a range of test compound concentrations. Bound radioactivity was quantified by liquid scintillation counting. Nonspecific binding was determined under identical conditions in the presence of 10 μM unlabeled haloperidol. The IC50 values (concentration causing a half-maximal inhibition of control-specific binding) and Hill coefficients (nH) were determined by non-linear regression analysis of the competition curves generated with mean replicate values using Hill equation curve-fitting. This analysis was performed using software developed at Cerep (Hill software) and validated by comparison with data generated by the commercial software SigmaPlot ®4.0 for Windows® (©1997 by SPSS Inc.). Inhibition constants (Ki) were calculated from IC50 values using the method of Cheng and Prusoff.

[2] = system: SH-SY5Y neuroblastoma cells; assay: Cytotoxicity, MTT/MTS assay; type: cell-based, human; settings: for IC50 (SY5Y)/ Ki (S1R): selectivity index, IC50 was considered > 100 µM
Description: (§3) To assess potential cytotoxicity in CNS-relevant cells, human neuroblastoma (SH-SY5Y) cells were exposed to compounds 2–7 at concentrations up to 100 μM. Cell viability was measured using the MTT assay.
(§4) Cytotoxicity was assessed in human SH-SY5Y neuroblastoma cells cultured in Dulbecco’s Modified Eagle Medium (DMEM, Gibco, Thermo Fisher Scientific Inc., Waltham, MA, USA) supplemented with 2 mM L-glutamine, 100 μg/mL streptomycin, 100 IU/mL penicillin, 1 mM non-essential amino acids (all from Invitrogen, Thermo Fisher Scientific Inc., Waltham, MA, USA), and 10% (v/v) heat-inactivated fetal bovine serum (Sigma-Aldrich, Burlington, MA, USA). Cells were maintained at 37 °C in a humidified 5% CO2 atmosphere and serum-starved for 24 h to synchronize cultures before treatment with the test compounds at final concentrations of 100, 50, 10, 5, 1, 0.5, 0.1, or 0.05 μM (all in <0.1% DMSO). […] Absorbance was measured at 490 nm, and the results were expressed as a percentage relative to untreated control cells (set at 100%).

[3] = target: T2, S2R (Homo sapiens, UniProt Q5BJF2); assay: S2R competitive radioligand binding, [3H]-DTG with excess (+)-pentazocine, Jurkat cell membranes; settings: for Ki: [3H]-DTG with (+)-pentazocine, mean of 2–3 independent experiments; for IC50: [3H]-DTG displacement with excess (+)-pentazocine, n = 2
T2 construct: For the S2R assay, Jurkat cell membranes (10–20 μg protein/tube) were incubated at room temperature for 1 h; host or cells: Jurkat cell membranes
T2 sequence (Q5BJF2 whole entry): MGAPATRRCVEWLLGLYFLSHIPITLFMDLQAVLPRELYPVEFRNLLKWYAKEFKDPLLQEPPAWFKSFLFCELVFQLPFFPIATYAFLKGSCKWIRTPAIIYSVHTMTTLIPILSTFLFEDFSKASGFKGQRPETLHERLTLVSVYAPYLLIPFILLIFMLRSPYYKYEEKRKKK
From the text: as §1, §2

[4] = system: CYP1A; design: method as in PMID 36233193; settings: at 10 µM; cited from earlier work
[5] = system: CYP3A; design: method as in PMID 36233193; settings: at 10 µM; cited from earlier work
[6] = target: T3, CYP2C19 (Homo sapiens, UniProt P33261); design: method as in PMID 36233193; settings: at 10 µM; cited from earlier work
T3 construct: tissue Eurofins Cerep (assay provider); host or cells: human liver microsomes

[7] = design: method as in PMID 36233193; settings: 10 µM; cited from earlier work
[8] = target: T4, hERG channel (Homo sapiens, UniProt Q12809); design: method as in PMID 36233193; settings: ratio; cited from earlier work
T4 construct: host or cells: CHO-K1
T4 sequence (Q12809 whole entry): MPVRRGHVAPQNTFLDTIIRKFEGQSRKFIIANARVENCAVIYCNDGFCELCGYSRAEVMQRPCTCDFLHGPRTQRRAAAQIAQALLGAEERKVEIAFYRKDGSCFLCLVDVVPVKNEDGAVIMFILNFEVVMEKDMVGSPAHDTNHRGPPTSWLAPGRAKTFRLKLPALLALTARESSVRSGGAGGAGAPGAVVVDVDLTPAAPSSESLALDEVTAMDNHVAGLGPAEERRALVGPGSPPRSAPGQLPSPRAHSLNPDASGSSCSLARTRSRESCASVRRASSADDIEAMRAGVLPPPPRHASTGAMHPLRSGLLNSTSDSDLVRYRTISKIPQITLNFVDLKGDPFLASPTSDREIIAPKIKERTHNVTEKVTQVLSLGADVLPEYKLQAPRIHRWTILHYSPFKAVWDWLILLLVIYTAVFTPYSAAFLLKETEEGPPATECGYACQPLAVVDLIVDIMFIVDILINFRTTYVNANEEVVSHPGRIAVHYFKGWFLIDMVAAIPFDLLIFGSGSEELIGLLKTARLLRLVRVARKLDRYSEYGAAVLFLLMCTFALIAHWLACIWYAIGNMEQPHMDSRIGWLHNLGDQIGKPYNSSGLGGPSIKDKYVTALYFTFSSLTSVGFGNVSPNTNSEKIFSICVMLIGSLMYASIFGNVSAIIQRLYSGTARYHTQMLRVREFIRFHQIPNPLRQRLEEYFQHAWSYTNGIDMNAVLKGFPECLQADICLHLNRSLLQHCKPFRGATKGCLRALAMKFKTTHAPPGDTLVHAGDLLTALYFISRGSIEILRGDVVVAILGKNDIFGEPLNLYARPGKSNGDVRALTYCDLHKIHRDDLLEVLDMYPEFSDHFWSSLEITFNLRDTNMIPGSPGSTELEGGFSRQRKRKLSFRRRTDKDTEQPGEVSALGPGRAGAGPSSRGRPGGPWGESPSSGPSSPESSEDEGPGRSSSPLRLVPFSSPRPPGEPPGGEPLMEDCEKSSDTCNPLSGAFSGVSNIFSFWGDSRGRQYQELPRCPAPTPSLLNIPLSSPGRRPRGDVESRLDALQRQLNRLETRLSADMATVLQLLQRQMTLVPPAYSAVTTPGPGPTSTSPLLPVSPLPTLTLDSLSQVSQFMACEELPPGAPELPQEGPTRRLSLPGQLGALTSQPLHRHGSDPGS

[9] = target: muscarinic M1 receptor (Homo sapiens, UniProt P11229); design: method as in PMID 11897056; settings: 10 µM; cited from earlier work
Sequence of muscarinic M1 receptor (P11229 whole entry): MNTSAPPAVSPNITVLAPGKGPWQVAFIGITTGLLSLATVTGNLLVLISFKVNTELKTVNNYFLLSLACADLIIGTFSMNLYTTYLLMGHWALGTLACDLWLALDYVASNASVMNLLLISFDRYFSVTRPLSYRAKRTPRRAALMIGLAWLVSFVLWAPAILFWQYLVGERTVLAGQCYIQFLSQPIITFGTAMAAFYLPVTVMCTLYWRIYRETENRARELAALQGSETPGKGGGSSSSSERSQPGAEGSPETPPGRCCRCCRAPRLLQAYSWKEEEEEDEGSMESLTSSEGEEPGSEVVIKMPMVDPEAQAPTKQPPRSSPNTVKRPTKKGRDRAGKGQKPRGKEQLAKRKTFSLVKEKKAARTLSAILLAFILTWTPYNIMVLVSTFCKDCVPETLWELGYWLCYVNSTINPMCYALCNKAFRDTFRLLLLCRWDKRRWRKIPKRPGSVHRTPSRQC

[10] = target: MRP2 (Homo sapiens, UniProt Q92887); design: method as in PMID 36233193; settings: at 10 µM; ABC family; cited from earlier work
[11] = target: histamine H1 receptor (Homo sapiens, UniProt P35367); design: method as in PMID 11897056; settings: 10 µM; cited from earlier work
Sequence of histamine H1 receptor (P35367 whole entry): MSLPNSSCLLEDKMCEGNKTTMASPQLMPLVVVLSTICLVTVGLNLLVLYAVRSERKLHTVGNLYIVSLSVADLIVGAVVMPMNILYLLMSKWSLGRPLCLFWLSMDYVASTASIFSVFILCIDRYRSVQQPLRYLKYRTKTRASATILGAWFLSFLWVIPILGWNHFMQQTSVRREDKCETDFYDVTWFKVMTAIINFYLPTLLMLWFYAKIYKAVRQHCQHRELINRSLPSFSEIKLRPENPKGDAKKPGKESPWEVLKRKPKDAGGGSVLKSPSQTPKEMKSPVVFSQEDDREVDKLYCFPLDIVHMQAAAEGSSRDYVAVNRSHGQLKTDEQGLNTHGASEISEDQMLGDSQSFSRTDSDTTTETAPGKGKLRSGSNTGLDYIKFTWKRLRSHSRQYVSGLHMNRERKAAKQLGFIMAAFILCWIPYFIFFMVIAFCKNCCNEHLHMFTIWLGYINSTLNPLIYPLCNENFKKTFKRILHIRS

[12] = design: method as in PMID 36233193; settings: 10 µM; cited from earlier work; remark: listed apart in the source
[13] = Cytotoxicity, MTT/MTS assay; type: cell-based, human; settings: human, SH-SY5Y neuroblastoma cells; percentage of cell death after 24 h treatment at 100 µM (duplicate); read-out: SY5Y % Cytotox
Description: as §3, §4

[14] = system: Caco-2 cell line; design: method as in PMID 36233193; settings: 10 µM, cited from earlier work
[15] = design: method as in PMID 36233193; settings: cited from earlier work
[16] = target: D4.4 (Homo sapiens, UniProt P21917); assay: Off-target panel of recombinant human receptors; type: cell-based; settings: 10 µM, duplicate; % inhibition of reference agonist activity
Sequence of D4.4 (P21917 whole entry): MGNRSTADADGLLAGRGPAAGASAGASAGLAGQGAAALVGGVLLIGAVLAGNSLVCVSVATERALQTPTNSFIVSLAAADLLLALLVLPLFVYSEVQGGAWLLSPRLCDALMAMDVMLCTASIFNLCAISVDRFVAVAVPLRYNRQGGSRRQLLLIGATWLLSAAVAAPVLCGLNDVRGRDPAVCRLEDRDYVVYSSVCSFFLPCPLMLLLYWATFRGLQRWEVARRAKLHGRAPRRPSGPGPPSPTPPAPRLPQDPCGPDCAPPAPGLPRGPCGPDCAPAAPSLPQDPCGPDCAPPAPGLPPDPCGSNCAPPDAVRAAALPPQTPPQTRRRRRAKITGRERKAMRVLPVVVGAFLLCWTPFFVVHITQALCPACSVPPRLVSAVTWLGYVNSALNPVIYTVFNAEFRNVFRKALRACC
Description: (§5) Among the synthesized compounds, four derivatives were selected based on their affinity and selectivity profiles. […] The remaining compounds (2, 3, 6, and 7) were assessed for their agonist and antagonist activities across a panel of 58 receptors relevant to CNS disorders, including serotonin, adenosine, adrenergic, cannabinoid, dopamine, histamine, and muscarinic receptors. These assays were conducted at a concentration of 10 µM, in duplicate, utilizing aequorin [19], cAMP HTRF™ [20], and GTPγS binding assays, as detailed in Table 2. […] Specifically, compound 6 antagonized four receptors (5-HT2A, 5-HT2C, α1a, H1), while compound 7 was active against five receptors (5-HT2A, 5-HT3, α1a, H1, M1).
(§6) Agonist and antagonist activities of the test compound are expressed as the percentage of the activity of the reference agonist at its EC100 concentration or the percentage of inhibition of the reference agonist activity at its EC80 concentration, respectively.

[17] = target: CXCR1 (Homo sapiens, UniProt P25024); assay: Off-target panel of recombinant human receptors; type: cell-based; settings: 10 µM, duplicate; % inhibition of reference agonist activity
Description: as §5, §6

[18] = target: T5, S1R-BiP complex (Cricetulus griseus, UniProt A0A3L7I3A5); assay: S1R-BiP complex dissociation, co-immunoprecipitation and BiP ELISA in CHO cells; type: cell-based; settings: for S1R-BiP complex levels: 10 µM
T5 construct: host or cells: CHO cells
T5 sequence (A0A3L7I3A5 1-223, one chain of several): as the sequence (Q99720 whole entry) above, with A4S, V5L, A12I, L15F, V25A, S34N, R39Q counted along it
Description: The interaction between S1R and BiP provides a reliable assay to identify S1R ligands by monitoring the dynamics of the S1R-BiP complex. In this assay, the known S1R agonist PRE-084 and antagonist NE-100 were used as controls (Figure 3).
The ability of the compounds to promote dissociation of the S1R–BiP complex was assessed by Amylgen (Montferrier-sur-Lez, France) as described in [22, 23]. CHO cells were treated with the test compounds for 30 min at 37 °C, followed by crosslinking with dithiobis(succinimidyl propionate) (DSP; Thermo Scientific, Waltham, MA, USA). Cells were lysed after 15 min on ice, and the lysates were centrifuged. Supernatants were incubated overnight at 4 °C with an anti-S1R antibody (Abcam, Cambridge, UK), and then with Protein A-Sepharose (Invitrogen). After the first centrifugation, pellets were resuspended in radioimmunoprecipitation assay (RIPA) buffer, centrifuged again, and resuspended in 2× sample buffer/bMCE buffer. Following a third centrifugation, the supernatants were analyzed for BiP immunoreactivity using an ELISA kit (SEC343Mu, USCNK Life Sciences, Wuhan, China).
Figure 3 In vitro evaluation of agonist activity of compounds 2, 3, and 6: The effects of compounds 2, 3, and 6 at 1 and 10 µM on the S1R-BiP association after 30 min of incubation were analyzed by co-immunoprecipitation using an anti-S1R antibody (red). BiP levels were quantified by ELISA. PRE-084 (white) and NE-100 (black) served as the reference agonist and antagonist, respectively (10 µM). Agonist activity was confirmed by its blockade with NE-100 (black hatching). […] Data represent the mean ± SEM from n = 6 per condition. Statistical significance was assessed using Dunnett’s test: *** p < 0.0001, * p < 0.05 vs. untreated control; ### p < 0.0001, # p < 0.05 for NE-100 blockade.

[19] = target: adrenergic α1a receptor (Homo sapiens, UniProt P35348); assay: Off-target panel, aequorin functional assay; type: cell-based; settings: 10 µM, duplicate; % inhibition of reference agonist activity
Sequence of adrenergic α1a receptor (P35348 whole entry): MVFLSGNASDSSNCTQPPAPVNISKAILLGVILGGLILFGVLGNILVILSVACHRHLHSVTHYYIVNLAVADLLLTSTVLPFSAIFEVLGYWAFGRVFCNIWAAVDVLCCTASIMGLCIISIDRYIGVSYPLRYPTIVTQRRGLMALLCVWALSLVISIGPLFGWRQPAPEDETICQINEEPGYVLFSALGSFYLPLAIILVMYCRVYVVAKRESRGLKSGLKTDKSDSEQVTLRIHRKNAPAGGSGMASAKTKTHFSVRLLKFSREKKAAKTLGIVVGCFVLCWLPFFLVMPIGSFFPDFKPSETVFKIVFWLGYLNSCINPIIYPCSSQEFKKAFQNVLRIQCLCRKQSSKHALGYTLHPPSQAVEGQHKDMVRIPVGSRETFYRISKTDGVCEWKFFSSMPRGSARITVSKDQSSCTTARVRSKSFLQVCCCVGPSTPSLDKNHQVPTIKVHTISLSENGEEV
Description: as §5
(§7) Rapidly, the tests were performed by Euroscreen (https://euroscreenfast.com/) with recombinant human G-coupled receptor-expressing cell lines using aequorin functional assays for serotonin 5-HT2A, 5-HT2B, 5-HT2C, 5-HT3, and 5-HT5A, adrenergic α1a and α1b, angiotensin AT1, cholesistokinin CCFK1, endothelin ETA, histamine H1, muscarinic M1 and M3, neurokinin NK1 and NK2, vasopressin V1a, and vasoactive intestinal peptide VPAC1 receptor analysis. Then, cAMP HTRF^TM assays were used to analyze serotonin 5-HT1A, 5-HT4E, 5-HT6, and 5-HT7, adenosine A1, A2A, and A3, adrenergic β1 and β2, cannabinoid CB1, dopamine D1, histamine H2, and neuropeptide Y NPY receptors. GTPγS^35 assays were used to analyze serotonin 5-HT1B, adrenergic α2a and α2b, dopamine D2, muscarinic M2 and M4, opioid δ, κ and µ, and somatostatine SST4 receptors.
as §6
(§8) For the aequorin assays, different cell lines co-expressing the receptors were grown in specific culture media and incubated for 4 h with coelenterazine h. For agonist testing, cell suspensions were mixed with test or reference agonists in a 96-well plate. For antagonist testing, the reference agonist at its EC80 (final concentration) was injected to the mix the containing cells and the tested compound. The resulting emission of light was recorded using the Hamamatsu Functional Drug Screening System 6000 [19].

[20] = target: serotonin 5-HT3 receptor (Homo sapiens, UniProt P46098); assay: Off-target panel, aequorin functional assay; type: cell-based; settings: 10 µM, duplicate; % inhibition of reference agonist activity
Sequence of serotonin 5-HT3 receptor (P46098 24-478): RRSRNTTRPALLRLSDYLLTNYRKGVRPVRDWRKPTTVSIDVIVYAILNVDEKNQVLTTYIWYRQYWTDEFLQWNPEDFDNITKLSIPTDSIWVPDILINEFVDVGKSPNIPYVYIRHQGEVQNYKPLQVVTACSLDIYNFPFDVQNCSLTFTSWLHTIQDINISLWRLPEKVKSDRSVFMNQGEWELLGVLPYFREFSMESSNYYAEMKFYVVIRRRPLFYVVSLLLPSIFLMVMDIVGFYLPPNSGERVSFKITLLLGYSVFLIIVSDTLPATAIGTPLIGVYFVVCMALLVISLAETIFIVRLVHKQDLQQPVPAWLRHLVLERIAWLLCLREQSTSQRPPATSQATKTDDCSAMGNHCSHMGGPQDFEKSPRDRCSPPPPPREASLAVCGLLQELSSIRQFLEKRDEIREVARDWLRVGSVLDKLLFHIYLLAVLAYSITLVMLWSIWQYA
Description: as §5, §7, §6, §8

[21] = target: adrenergic α1b receptor (Homo sapiens, UniProt P35368); assay: Off-target panel, aequorin functional assay; type: cell-based; settings: 10 µM, duplicate; % inhibition of reference agonist activity
Sequence of adrenergic α1b receptor (P35368 whole entry): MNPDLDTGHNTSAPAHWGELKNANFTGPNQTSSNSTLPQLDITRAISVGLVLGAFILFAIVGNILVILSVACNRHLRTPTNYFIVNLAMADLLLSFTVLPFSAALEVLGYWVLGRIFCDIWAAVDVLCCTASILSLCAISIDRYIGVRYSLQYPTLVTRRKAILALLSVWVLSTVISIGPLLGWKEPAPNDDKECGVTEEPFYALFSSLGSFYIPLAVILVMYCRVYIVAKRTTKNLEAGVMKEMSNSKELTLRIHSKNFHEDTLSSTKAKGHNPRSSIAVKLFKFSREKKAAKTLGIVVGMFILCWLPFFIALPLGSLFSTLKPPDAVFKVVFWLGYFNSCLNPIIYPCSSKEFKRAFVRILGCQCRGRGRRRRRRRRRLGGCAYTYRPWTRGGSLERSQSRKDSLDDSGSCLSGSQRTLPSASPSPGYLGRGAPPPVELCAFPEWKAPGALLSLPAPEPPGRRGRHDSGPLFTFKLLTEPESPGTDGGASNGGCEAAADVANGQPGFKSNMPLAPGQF
Description: as §5, §7, §6, §8

[22] = target: serotonin 5-HT2C receptor (Homo sapiens, UniProt P28335); assay: Off-target panel, aequorin functional assay; type: cell-based; settings: 10 µM, duplicate; % inhibition of reference agonist activity
Sequence of serotonin 5-HT2C receptor (P28335 33-458): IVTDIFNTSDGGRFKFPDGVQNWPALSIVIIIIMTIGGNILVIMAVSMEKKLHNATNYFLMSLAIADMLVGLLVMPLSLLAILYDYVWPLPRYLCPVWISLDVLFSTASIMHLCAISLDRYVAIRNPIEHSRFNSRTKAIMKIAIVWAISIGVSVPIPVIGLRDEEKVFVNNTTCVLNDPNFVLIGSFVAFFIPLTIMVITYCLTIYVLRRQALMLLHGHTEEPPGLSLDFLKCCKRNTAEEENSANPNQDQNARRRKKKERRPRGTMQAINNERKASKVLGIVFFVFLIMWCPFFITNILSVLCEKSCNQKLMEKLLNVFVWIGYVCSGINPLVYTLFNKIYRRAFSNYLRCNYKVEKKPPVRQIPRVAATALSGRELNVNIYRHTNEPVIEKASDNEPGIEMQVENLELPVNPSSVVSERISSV
Description: as §5, §7, §6, §8

3-(Benzylmethylamino)-N-(3-bromobenzyl)propanamide [Compound 4]
Ki [1]: > 200 nM
SY5Y % Cytotox ([2]; 100 µM): 6%
Ki [3]: > 200 nM

CN(CCCNC(=O)c1ccc(Cl)cc1)Cc1ccccc1 [Compound 1]
CYP inhibition 1A [4]: 2.1%
CYP inhibition 3A [5]: 36.9%
CYP inhibition 2C19 [6]: 36.2%
Ki [1]: 3.2 nM
IC50 [1]: 0.0063 µM
Plasma protein binding [7]: 94%
IC50 (hERG)/Ki (σ1) [8]: 312
M1 antagonist activity (in words) [9]: antagonist activity
Drug transport inhibition MRP2 [10]: −18.6%
H1 activity (in words) [11]: no activity
Human liver microsome half-life t1/2 [12]: >1 h
IC50 (SY5Y)/ Ki (S1R) [2]: >31,250
cytotoxicity at 24 h, 100 µM [13]: 28%
Permeability A/B pH7.4/7.4 ([14]; Caco-2): 29.1 ×10^−6 cm/s
Permeability B/A pH7.4/7.4 ([14]; Caco-2): 66.1 ×10^−6 cm/s
e-ratio ([14]; efflux ratio Papp(B→A)/Papp(A→B)): 2.3
IC50 [3]: 0.255 µM
Ki [3]: 190 nM
Mouse plasma t1/2 [15]: 25.9 h

CN(CCC(=O)NCc1ccc(Cl)cc1)Cc1ccccc1 [Compound 3, 3-(Benzylmethylamino)-N-(4-chlorobenzyl)propanamide]
D4.4 [b] antagonist activity [16]: 84%
CXCR1 [b] antagonist activity [17]: 54%
IC50 [1]: 0.0033 µM
Ki (S2R)/ Ki (S1R) [1]: 241
Dissociation of the S1R-BiP complex (in words) ([18]; 1 and 10 µM, 30 min incubation, CHO cells, n = 6): significant, dose-dependent dissociation
Dissociation of S1R-BiP complex in the presence of NE-100 (in words) ([18]; co-treatment with NE-100 (10 µM)): completely inhibited
IC50 (SY5Y)/ Ki (S1R) [2]: >58,823
cytotoxicity at 24 h, 100 µM [13]: 1%
α1a [b] antagonist activity [19]: 88%
5-HT3 [b] antagonist activity [20]: 72%
α1b [b] antagonist activity [21]: 65%
5-HT2C [b] antagonist activity [22]: 76%
IC50 [3]: 0.54 µM

CN(CCC(=O)NCc1ccc(Cl)cc1Cl)Cc1ccccc1 [Compound 5, 3-(Benzylmethylamino)-N-(2,4-Dichlorobenzyl)propanamide]
IC50 [1]: 0.0045 µM
Ki (S2R)/ Ki (S1R) [1]: 52
IC50 (SY5Y)/ Ki (S1R) [2]: >43,478
cytotoxicity at 24 h, 100 µM [13]: 37%
IC50 [3]: 0.16 µM

CN(CCC(=O)NCc1ccc([N+](=O)[O-])cc1)Cc1ccccc1 [Compound 7, 3-(Benzylmethylamino)-N-(4-Nitrobenzyl)propanamide]
Ki [1]: 110 nM
IC50 [1]: 0.22 µM
Ki (S2R)/ Ki (S1R) [1]: 59
IC50 (SY5Y)/ Ki (S1R) [2]: >909
cytotoxicity at 24 h, 100 µM [13]: 9%
IC50 [3]: 8.6 µM

CCCN(CCC)CCc1ccc(OC)c(OCCc2ccccc2)c1 [NE-100, reference compound]
S1R-BiP complex levels ([18]; 30 min incubation, CHO cells): 90–100 % of the control

O=C(OCCN1CCOCC1)C1(c2ccccc2)CCCCC1 [PRE-084, reference compound]
S1R-BiP complex levels ([18]; 30 min incubation, CHO cells): less than 50 % of the control
